# From publication PMC7144530 (The Journal of Experimental Medicine, 2020)
# System: CD8 T cells (CD4-depleted splenocytes)
# Experiment: IFN-gamma ELISpot of CD8 T cells from mice immunized with mutant SLP + adjuvant
# Assay type: in vivo, mouse
# Conditions: long peptide ELISpot, immunized vs control; positivity needs effect size ≥2
sequence,measurement,value
IYEFDYHLYGQNITMIMTSVSGHL [Mutation C-117],fold-change of IFN-gamma spot counts after vaccination,1.94
